Source: patent US20240197737A1, “APPLICATION OF COMPOUND IN PREPARATION OF INHIBITORY DRUG TARGETING ERBB2 MUTANT” (SHANGHAI PHARMACEUTICALS HOLDING CO., LTD., priority 2021, published 2024)
Values belong to the molecule of their own block, whether it stands above or below them.

Legend:
ErbB2 (D769Y) = molecular target: T1, ErbB2 (D769Y) (Homo sapiens, UniProt P04626, D769Y); test: ErbB2 mutant inhibition assay (33P-ATP radiometric kinase assay, Reaction Biology); assay type: biochemical; settings: ATP 10 μM, 20 min preincubation, 2 h reaction; read-out: Compound IC50 ErbB2 (D769Y)
T1 construct: purchased Reaction Biology Corporation
Method: (§1) The reagents and materials used in the assay, as well as the testing procedure, were provided and carried out by Reaction Biology Corporation. The specific steps were as follows: • 1. […] Conditions for the enzyme reaction assay: The test compounds were incubated for 20 minutes, ATP concentration was set at 10 μM, and the total duration of the enzyme reaction was 2 hours. • 3. Experimental steps for the enzyme reaction
(§2) The enzyme reaction buffer was 20 mM HEPES at a pH of 7.5, 10 mM MgCl2, 2 mM MnCl2, 1 mM EGTA, 0.01% Brij35, 0.02 mg/mL BSA, 0.1 mM Na3VO4, 2 mM DTT, and 1% DMSO.
(§3) Kinase activity %=(Remaining kinase activity of test compound samples/Kinase activity of solvent control samples (DMSO))*100%
(§4) The IC50 of the compound was calculated by fitting the kinase activity % at different compound concentrations.

ErbB2 (V777L) = molecular target: T2, ErbB2 (V777L) (Homo sapiens, UniProt P04626, V777L); test: as above; assay type: biochemical; settings: ATP 10 μM, 20 min preincubation, 2 h reaction; read-out: Compound IC50 ErbB2 (V777L)
T2 construct: purchased Reaction Biology Corporation
Method: as §1, §2, §3, §4

ErbB2 (R896C) = molecular target: T3, ErbB2 (R896C) (Homo sapiens, UniProt P04626, R896C); test: as above; assay type: biochemical; settings: ATP 10 μM, 20 min preincubation, 2 h reaction; read-out: Compound IC50 ErbB2 (R896C)
T3 construct: purchased Reaction Biology Corporation
Method: as §1, §2, §3, §4

ErbB2 (D769H) = molecular target: T4, ErbB2 (D769H) (Homo sapiens, UniProt P04626, D769H); test: as above; assay type: biochemical; settings: ATP 10 μM, 20 min preincubation, 2 h reaction; read-out: Compound IC50 ErbB2 (D769H)
T4 construct: purchased Reaction Biology Corporation
Method: as §1, §2, §3, §4

[1] = test system: NCI-H1781 ErbB2 exon20ins (G766 > VC); test: ErbB2 mutant cell inhibition test (CTG, 72 hours); assay type: cell-based, Human; settings: for IC50: Homo sapiens, NCI-H1781 ErbB2 exon20ins (G766 > VC), 72 hours, CTG
Method: Cells were cultured, harvested during their logarithmic growth phase, and counted using a platelet counter. Cell viability was verified to be above 90% by trypan blue exclusion assay. After in vitro culture, 2×10^6 cells were obtained. The cell suspension was aliquoted into a 96-well plate at 1×10^3 cells per well (90 μL/well), and incubated overnight under conditions of 37° C., 5% CO2, and 95% humidity. A 10× drug solution was prepared, with a maximum concentration of 10 μM for the assay, and serially diluted 3-fold to nine concentrations. 10 μL of the drug solution was added to each well of the 96-well plate inoculated with the cells, and three duplicate wells were set for each drug concentration. The 96-well plate, now containing the drug-treated cells, was cultured under conditions of 37° C., 5% CO2, and 95% humidity for an additional 72 hours before CTG analysis was performed.

[2] = test system: Ba/F3 ErbB2 A775_G776insYVMA; test: ErbB2 mutant cell inhibition test (CTG, 72 hours); assay type: cell-based; settings: for IC50: Mus musculus, BaF3, Ba/F3 ErbB2 A775_G776insYVMA, 72 hours, CTG
Method: Cells were cultured, harvested during their logarithmic growth phase, and counted using a platelet counter. Cell viability was verified to be above 90% by trypan blue exclusion assay. After in vitro culture, 2×10^6 cells were obtained. […] A 10× drug solution was prepared, with a maximum concentration of 10 μM for the assay, and serially diluted 3-fold to nine concentrations. 10 μL of the drug solution was added to each well of the 96-well plate inoculated with the cells, and three duplicate wells were set for each drug concentration.

[3] = test system: Ba/F3 ErbB2 A775_G776insYVMA mouse xenograft; test: Efficacy testing in NPSG mouse xenograft model; assay type: in vivo; settings: for TGI (%): administration for 13 days; for Efficacy (in words): continuous administration for 13 days
Description: NPSG male mice (Shanghai Jihui Laboratory Animal Care Co., Ltd., Certificate: No. 20170012006783) were subcutaneously inoculated on the right shoulder with Ba/F3 ErbB2 A775_G776insYVMA cells (cultured in vitro, 9×10^7 cells obtained). When the average tumor volume reached 130 mm^3, the mice were randomly divided into six groups based on tumor volume and body weight, with 10 mice in each group, and administration was started immediately. After the initiation of administration, the mice's body weight and tumor volume were measured twice a week, with the administration continued until Day 13 of the experiment. On Day 14 of the experiment, post-administration sample collection was conducted for each group.
Note: Data are presented as mean±standard error; control group is the group without any compound administered.

[4] = 20 mg/kg, Day 0, mean ± standard error
[5] = 20 mg/kg, Day 4, mean ± standard error
[6] = 20 mg/kg, Day 7, mean ± standard error
[7] = 20 mg/kg, Day 11, mean ± standard error
[8] = 20 mg/kg, Day 13, mean ± standard error

T4 sequence (P04626 23-1255 D769H): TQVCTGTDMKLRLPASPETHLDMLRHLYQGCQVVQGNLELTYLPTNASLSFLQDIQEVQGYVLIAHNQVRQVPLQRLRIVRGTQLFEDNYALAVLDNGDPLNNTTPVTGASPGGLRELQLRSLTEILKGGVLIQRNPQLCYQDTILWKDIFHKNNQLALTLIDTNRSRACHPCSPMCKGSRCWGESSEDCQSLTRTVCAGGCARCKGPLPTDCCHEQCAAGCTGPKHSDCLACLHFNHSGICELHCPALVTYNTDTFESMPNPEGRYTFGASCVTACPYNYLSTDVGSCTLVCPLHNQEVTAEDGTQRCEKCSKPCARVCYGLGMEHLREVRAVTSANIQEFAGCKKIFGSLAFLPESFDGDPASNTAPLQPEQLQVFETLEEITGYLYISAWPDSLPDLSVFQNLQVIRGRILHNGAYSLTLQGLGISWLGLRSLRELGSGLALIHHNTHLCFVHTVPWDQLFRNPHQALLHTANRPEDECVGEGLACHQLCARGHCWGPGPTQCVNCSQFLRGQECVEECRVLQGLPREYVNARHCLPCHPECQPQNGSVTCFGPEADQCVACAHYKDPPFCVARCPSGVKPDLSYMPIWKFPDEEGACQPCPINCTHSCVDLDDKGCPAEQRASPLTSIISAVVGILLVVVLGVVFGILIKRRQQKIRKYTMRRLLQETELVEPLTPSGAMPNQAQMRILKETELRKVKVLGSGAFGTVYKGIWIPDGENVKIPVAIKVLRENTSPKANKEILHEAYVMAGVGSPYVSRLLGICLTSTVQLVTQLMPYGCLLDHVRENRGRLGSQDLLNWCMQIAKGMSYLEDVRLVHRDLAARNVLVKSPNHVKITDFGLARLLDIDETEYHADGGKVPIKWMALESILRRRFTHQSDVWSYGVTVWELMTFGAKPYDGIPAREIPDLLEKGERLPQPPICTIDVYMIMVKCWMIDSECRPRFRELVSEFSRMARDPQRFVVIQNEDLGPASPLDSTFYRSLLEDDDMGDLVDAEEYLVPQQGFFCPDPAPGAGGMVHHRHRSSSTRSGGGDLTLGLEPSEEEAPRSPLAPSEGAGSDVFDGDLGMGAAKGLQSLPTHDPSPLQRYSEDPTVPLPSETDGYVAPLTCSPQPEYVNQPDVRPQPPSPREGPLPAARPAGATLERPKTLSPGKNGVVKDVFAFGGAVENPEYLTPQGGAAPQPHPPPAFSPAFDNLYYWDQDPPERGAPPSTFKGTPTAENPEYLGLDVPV
T2 sequence (P04626 23-1255 V777L): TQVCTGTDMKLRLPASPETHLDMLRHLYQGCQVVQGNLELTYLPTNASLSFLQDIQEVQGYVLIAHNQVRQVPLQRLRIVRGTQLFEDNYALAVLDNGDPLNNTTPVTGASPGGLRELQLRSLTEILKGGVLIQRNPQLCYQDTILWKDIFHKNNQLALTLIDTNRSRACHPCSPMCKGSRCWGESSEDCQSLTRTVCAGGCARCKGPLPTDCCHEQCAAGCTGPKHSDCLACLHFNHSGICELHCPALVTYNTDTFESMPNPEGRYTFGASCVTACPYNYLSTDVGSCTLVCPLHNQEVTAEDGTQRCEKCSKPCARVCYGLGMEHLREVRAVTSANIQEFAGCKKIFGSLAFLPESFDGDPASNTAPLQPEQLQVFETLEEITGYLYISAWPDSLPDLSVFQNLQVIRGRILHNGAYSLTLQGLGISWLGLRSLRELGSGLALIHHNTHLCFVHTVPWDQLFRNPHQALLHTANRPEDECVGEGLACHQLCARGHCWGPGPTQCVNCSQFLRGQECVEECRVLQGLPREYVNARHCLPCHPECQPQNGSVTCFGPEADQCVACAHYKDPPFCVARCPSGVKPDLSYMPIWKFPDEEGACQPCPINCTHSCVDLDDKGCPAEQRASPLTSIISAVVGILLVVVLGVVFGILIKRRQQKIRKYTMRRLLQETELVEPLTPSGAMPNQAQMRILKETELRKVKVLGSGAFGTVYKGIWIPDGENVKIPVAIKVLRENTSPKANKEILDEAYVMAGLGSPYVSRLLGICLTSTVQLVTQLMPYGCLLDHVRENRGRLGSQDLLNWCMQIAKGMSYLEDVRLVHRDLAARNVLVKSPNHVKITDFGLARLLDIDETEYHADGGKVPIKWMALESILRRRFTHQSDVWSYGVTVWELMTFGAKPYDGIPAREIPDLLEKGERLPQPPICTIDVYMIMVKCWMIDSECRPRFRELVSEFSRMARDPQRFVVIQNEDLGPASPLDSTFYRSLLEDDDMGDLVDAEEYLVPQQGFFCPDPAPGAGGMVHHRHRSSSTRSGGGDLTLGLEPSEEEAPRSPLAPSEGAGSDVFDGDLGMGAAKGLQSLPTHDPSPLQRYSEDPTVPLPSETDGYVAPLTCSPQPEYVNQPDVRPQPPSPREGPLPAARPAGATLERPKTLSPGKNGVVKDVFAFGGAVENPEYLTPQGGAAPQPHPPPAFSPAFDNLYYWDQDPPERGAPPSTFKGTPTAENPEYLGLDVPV
T1 sequence (P04626 23-1255 D769Y): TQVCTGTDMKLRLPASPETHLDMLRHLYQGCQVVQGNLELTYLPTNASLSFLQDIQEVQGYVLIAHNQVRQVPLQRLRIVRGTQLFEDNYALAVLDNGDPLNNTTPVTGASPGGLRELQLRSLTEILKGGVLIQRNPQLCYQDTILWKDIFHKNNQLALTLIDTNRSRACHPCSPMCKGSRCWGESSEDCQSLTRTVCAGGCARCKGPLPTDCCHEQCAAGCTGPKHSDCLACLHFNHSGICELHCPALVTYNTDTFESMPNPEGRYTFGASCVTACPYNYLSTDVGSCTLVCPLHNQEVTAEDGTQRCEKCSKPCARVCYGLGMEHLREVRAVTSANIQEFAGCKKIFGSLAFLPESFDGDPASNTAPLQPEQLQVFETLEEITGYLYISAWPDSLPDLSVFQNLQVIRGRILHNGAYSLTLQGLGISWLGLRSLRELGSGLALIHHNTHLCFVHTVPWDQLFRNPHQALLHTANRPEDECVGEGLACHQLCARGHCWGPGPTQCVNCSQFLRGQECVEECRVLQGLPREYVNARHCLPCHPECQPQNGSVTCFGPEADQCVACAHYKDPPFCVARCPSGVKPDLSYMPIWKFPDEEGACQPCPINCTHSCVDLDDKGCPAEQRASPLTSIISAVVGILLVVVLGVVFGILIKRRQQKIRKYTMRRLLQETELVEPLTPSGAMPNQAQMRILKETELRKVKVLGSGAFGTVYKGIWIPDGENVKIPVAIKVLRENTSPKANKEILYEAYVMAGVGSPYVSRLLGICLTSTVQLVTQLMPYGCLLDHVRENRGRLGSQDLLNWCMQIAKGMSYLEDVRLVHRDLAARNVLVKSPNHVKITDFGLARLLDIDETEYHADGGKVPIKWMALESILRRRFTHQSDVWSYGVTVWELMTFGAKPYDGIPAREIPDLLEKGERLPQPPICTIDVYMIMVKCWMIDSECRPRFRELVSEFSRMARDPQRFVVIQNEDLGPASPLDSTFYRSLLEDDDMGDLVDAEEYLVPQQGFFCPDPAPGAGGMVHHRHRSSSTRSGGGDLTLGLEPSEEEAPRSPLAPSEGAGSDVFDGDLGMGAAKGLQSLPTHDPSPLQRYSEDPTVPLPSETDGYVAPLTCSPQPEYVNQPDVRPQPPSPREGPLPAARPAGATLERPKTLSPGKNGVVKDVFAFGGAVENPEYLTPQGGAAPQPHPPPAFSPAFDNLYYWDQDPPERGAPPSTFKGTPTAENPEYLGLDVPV
T3 sequence (P04626 23-1255 R896C): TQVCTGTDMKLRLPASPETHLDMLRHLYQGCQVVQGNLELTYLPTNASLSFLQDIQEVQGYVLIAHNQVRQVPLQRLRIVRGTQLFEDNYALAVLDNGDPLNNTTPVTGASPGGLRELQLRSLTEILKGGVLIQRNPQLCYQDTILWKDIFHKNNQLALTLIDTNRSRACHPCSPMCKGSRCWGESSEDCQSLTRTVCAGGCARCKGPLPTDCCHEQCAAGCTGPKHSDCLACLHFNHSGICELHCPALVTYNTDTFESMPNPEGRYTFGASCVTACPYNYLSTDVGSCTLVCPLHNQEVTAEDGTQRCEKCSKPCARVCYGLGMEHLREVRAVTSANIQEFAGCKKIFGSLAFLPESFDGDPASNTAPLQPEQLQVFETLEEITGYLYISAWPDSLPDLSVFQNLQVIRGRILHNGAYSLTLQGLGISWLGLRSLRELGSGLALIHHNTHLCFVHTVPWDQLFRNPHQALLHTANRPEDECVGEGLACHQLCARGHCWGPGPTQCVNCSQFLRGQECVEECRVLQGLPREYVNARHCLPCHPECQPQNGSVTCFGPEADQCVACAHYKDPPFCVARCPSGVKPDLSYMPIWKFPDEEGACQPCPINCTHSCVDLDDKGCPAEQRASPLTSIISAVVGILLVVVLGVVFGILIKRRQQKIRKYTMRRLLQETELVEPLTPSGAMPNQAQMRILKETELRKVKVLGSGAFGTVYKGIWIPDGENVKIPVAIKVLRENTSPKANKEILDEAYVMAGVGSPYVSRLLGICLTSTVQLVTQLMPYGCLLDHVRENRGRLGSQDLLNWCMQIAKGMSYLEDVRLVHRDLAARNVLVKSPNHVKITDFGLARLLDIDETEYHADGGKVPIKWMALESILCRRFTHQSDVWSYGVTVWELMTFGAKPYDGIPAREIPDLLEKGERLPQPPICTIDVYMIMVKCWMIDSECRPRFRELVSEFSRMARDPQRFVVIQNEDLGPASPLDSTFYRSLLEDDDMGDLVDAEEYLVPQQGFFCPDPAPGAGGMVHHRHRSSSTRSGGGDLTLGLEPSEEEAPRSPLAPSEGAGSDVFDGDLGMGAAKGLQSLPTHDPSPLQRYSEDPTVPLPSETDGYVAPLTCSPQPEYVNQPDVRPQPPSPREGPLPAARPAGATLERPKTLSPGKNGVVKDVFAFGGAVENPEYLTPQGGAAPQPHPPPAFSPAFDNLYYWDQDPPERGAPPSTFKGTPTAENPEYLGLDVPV

Compound: Cc1cc(Nc2ncnc3ccc(NC(=O)/C=C/C4COCCN4)cc23)ccc1Oc1cc2nncn2cn1 (stereo not drawn)
IC50 (ErbB2 (D769Y)): 0.892 nM
IC50 (ErbB2 (V777L)): 0.438 nM
IC50 (ErbB2 (R896C)): 0.973 nM
IC50 (ErbB2 (D769H)): 0.72 nM

Compound: CCOc1cc2ncnc(Nc3ccc(Oc4ccn5ncnc5c4)c(C)c3)c2cc1NC(=O)/C=C/[C@H]1CCCN1C
IC50 (ErbB2 (D769Y)): < 0.152 nM
IC50 (ErbB2 (V777L)): < 0.152 nM
IC50 (ErbB2 (R896C)): < 0.152 nM
IC50 (ErbB2 (D769H)): < 0.152 nM

Compound: CCOc1cc2ncnc(Nc3ccc(Oc4ccn5ncnc5c4)c(C)c3)c2cc1NC(=O)/C(F)=C/[C@@H]1CCCN1C
IC50 (ErbB2 (D769Y)): 2.44 nM
IC50 (ErbB2 (V777L)): 0.235 nM
IC50 (ErbB2 (R896C)): 0.978 nM
IC50 (ErbB2 (D769H)): 0.998 nM

Compound: CS(=O)(=O)CCNCc1ccc(-c2ccc3ncnc(Nc4ccc(OCc5cccc(F)c5)c(Cl)c4)c3c2)o1 [Lapatinib, reference compound]
IC50 [2]: 106 nM
Efficacy (in words) ([3]; 20 mg/kg): moderate efficacy

Compound: CCOc1cc2ncc(C#N)c(Nc3ccc(OCc4ccccn4)c(Cl)c3)c2cc1NC(=O)/C=C/CN(C)C [Neratinib, reference compound]
Tumor volume [3, 4]: 130.9 ± 4.75 mm^3
Tumor volume [3, 5]: 115.3 ± 9.81 mm^3
Tumor volume [3, 6]: 182 ± 10.87 mm^3
Tumor volume [3, 7]: 325.6 ± 9.86 mm^3
Tumor volume [3, 8]: 532.8 ± 15.26 mm^3
TGI (%) ([3]; 20 mg/kg): 56%

The next lines start with results.

IC50 (ErbB2 (D769Y)): 0.811 nM
IC50 (ErbB2 (V777L)): 2.41 nM
IC50 (ErbB2 (R896C)): 4.84 nM
IC50 (ErbB2 (D769H)): 1.69 nM
Compound: Cc1cc(Nc2ncnc3ccc(NC(=O)/C(F)=C/[C@H]4CCCN4C)cc23)ccc1Oc1cc2nncn2cn1

IC50 (ErbB2 (D769Y)): 2.06 nM
IC50 (ErbB2 (V777L)): 0.889 nM
IC50 (ErbB2 (R896C)): 1.94 nM
IC50 (ErbB2 (D769H)): 1.34 nM
Compound: CCOc1cc2ncc(C#N)c(Nc3ccc(Oc4cc5nncn5cn4)c(C)c3)c2cc1NC(=O)/C=C/[C@H]1CCCN1C

IC50 (ErbB2 (D769Y)): 0.413 nM
IC50 (ErbB2 (V777L)): 0.471 nM
IC50 (ErbB2 (R896C)): 1.87 nM
IC50 (ErbB2 (D769H)): 0.563 nM
Compound: CCOc1cc2ncnc(Nc3ccc(Oc4cc5nncn5cn4)c(C)c3)c2cc1NC(=O)/C=C/[C@H]1CCCN1C

IC50 [1]: 35.8 nM
IC50 [2]: 5 nM
IC50 (ErbB2 (D769Y)): 1.4 nM
IC50 (ErbB2 (V777L)): 0.312 nM
IC50 (ErbB2 (R896C)): 0.713 nM
IC50 (ErbB2 (D769H)): 0.716 nM
Compound: CCOc1cc2ncnc(Nc3ccc(Oc4ccn5ncnc5c4)c(C)c3)c2cc1NC(=O)/C(F)=C/[C@H]1CCCN1C [Compound I]
Inhibitory activity on cell proliferation (in words) ([1]; NCI-H1781 mutant cell line): good inhibitory activity
Inhibitory activity on cell proliferation (in words) ([2]; Ba/F3 ErbB2 A775_G776insYVMA mutant cell line): good inhibitory activity
Tumor volume ([3]; 10 mg/kg, Day 0, mean ± standard error): 130.9 ± 4.72 mm^3
Tumor volume ([3]; 10 mg/kg, Day 4, mean ± standard error): 112.1 ± 4.71 mm^3
Tumor volume ([3]; 10 mg/kg, Day 7, mean ± standard error): 157.7 ± 6.95 mm^3
Tumor volume ([3]; 10 mg/kg, Day 11, mean ± standard error): 160.2 ± 6.3 mm^3
Tumor volume ([3]; 10 mg/kg, Day 13, mean ± standard error): 172.9 ± 11.16 mm^3
TGI (%) ([3]; 10 mg/kg): 95%
Efficacy (in words) ([3]; 10 mg/kg): strong efficacy
Tumor volume [3, 4]: 130.2 ± 5.25 mm^3
Tumor volume [3, 5]: 69.2 ± 2.69 mm^3
Tumor volume [3, 6]: 82.7 ± 4.74 mm^3
Tumor volume [3, 7]: 93.5 ± 5.75 mm^3
Tumor volume [3, 8]: 71.1 ± 4.51 mm^3
TGI (%) ([3]; 20 mg/kg): 107%
Efficacy (in words) ([3]; 20 mg/kg): strong efficacy
Tumor volume ([3]; 40 mg/kg, Day 0, mean ± standard error): 130.1 ± 5 mm^3
Tumor volume ([3]; 40 mg/kg, Day 4, mean ± standard error): 63.8 ± 4.44 mm^3
Tumor volume ([3]; 40 mg/kg, Day 7, mean ± standard error): 36.3 ± 11.12 mm^3
Tumor volume ([3]; 40 mg/kg, Day 11, mean ± standard error): 21.5 ± 9.26 mm^3
Tumor volume ([3]; 40 mg/kg, Day 13, mean ± standard error): 20.6 ± 8.61 mm^3
TGI (%) ([3]; 40 mg/kg): 112%
Efficacy (in words) ([3]; 40 mg/kg): strong efficacy
Tumor inhibitory effect compared with the other test groups (in words) ([3]; 40 mg/kg, statistically different from other test groups (p-value less than 0.01)): strongest tumor inhibitory effect

IC50 [1]: 73.2 nM
IC50 (ErbB2 (D769Y)): 91.7 nM
IC50 (ErbB2 (V777L)): 10.5 nM
IC50 (ErbB2 (R896C)): 5.24 nM
IC50 (ErbB2 (D769H)): 15.6 nM
Compound: CCOc1cc2ncc(C#N)c(Nc3ccc(OCc4ccccn4)c(Cl)c3)c2cc1NC(=O)/C=C/[C@H]1CCCN1C [Pyrotinib, reference compound]
Tumor volume [3, 4]: 130.4 ± 5.4 mm^3
Tumor volume [3, 5]: 154.6 ± 4.87 mm^3
Tumor volume [3, 6]: 328.2 ± 13.39 mm^3
Tumor volume [3, 7]: 405.4 ± 19.38 mm^3
Tumor volume [3, 8]: 534.8 ± 38.29 mm^3
TGI (%) ([3]; 20 mg/kg): 55%
Efficacy (in words) ([3]; 20 mg/kg): moderate efficacy

IC50 (ErbB2 (D769Y)): 8.89 nM
IC50 (ErbB2 (V777L)): 1.08 nM
IC50 (ErbB2 (R896C)): 2.17 nM
IC50 (ErbB2 (D769H)): 2.58 nM
Compound: Cc1cc(Nc2ncnc3ccc(NC4=NC(C)(C)CO4)cc23)ccc1Oc1ccn2ncnc2c1 [Tucatinib, reference compound]
